Blank lines part the entries; values can stand above or below the molecule they belong to.
What was measured:
Assay type in all cases: cell-based, human
[1] = system: OVCAR3; assay: Proliferation, CellTiter96 (MTS)
Method: (§1) The proliferation of SKOV3 and OVCAR3 transduced or not with Ad-GFP or Ad-GFP-SPARC as described in Example 1, in response to MCP-1, was assessed using a commercially available CellTiter96 kit (Promega) according to the manufacturer' instructions. The number of proliferating cells was determined colorimetrically by measuring the absorbance at 590 nm (0D590) of the dissolved formazan product after the addition of 3 -(4,5 -dimethylthiazol-2-yl)-5-(3 -carboxymethoxyphenyl)-2-(4-sulfophenyl)-2H-tetrazolium (MTS) for 3 hours.
(§2) The proliferation and invasiveness of SKOV3 and OVCAR3 cells, transduced or not with Ad-GFP and Ad-GFP-SPARC, in response to PGE2, was determined as described in Example 3. The results shown in FIG. 5 are expressed as the mean±SEM of three independent experiments performed in quadruplicate (proliferation) or triplicate (invasion). *P<0.05, compared to the matched WT cells or Ad-GFP transduced cells. **P<0.05, compared to NS control cells.

[2] = system: SKOV3; assay: Proliferation, CellTiter96 (MTS)
Method: as §1, §2

[3] = system: NF-κB promoter; assay: NF-κB promoter luciferase reporter assay; conditions: SKOV3 and OVCAR3, concentration-dependent up to 5 nM
[4] = system: OVCAR3; assay: Matrigel invasion assay
Method: (§3) The invasiveness of SKOV3 and OVCAR3 transduced or not with Ad-GFP or Ad-GFP-SPARC as described in Example 1, in response to MCP-1, was assessed as previously described (Said et al., Am J Pathol, 167: 1739-52 (2005)). 1×10^5 cells per […] in the presence and absence of MCP-lwere added to the upper chamber of polycarbonate inserts ([…] pore size, Corning Costar, Corning, N.Y.) coated on ice with Growth factor—reduced Matrigel (BD Biosciences, Bedford, Mass.) diluted 1:3 in SFM. In some experiments, cells were pretreated with MCP-1 antibody (25 µg/ml) or its isotype control (50 μg/ml) for 30 minutes before stimulation. The bottom chambers contained complete growth medium. […] The migrated cells were counted in six fields after staining with hemacolor 3 stain (SOURCE?), using an inverted microscope equipped with a DFC 320 digital camera (Leica Microsystems, Wetzlar, Germany) under 200× magnification.
as §2

[5] = system: SKOV3; assay: Matrigel invasion assay
Method: as §3, §2

[6] = system: MMP-2 and MMP-9; assay: Gelatin zymography of conditioned media
Method: Subconfluent monolayers of ovarian cancer cells, transduced or not with Ad-GFP and Ad-GFP-SPARC, were grown in six-well plates alone or in coculture with mesothelial cell monolayers and serum-starved in SFM overnight. U937 macrophages (2×10^6 cells/ml SFM) were cultured in 0.22-μm transwell chambers (Corning, Costar) alone, in cocultures without direct cell-cell contact with ovarian cancer cells, or in triple cultures with ovarian cancer cells and mesothelial cells for an additional 24 hours. LPA (50 μM) or exogenous SPARC (20 μg/ml) (SOURCE?) was included in some experiments. Cell culture conditioned media (CM) were collected, cleared by centrifugation, and concentrated five-fold using Centricon centrifugal filters (Millipore, Bedford, Mass.). […] CM equivalent to 200 μg of ovarian cancer cells, and/or U937 cells was analyzed by gelatin zymography as described previously (Said et al., Am J Pathol, 167: 1739-52 (2005)).

[7] = system: PGE2; assay: PGE2 level in conditioned medium, enzyme immunoassay
Method: LPA (50 μM) or exogenous SPARC (20 μg/ml) (SOURCE?) was included in some experiments.
SKOV3 and OVCAR3 cells were treated as described in Example 6, and PGE2 level was determined in the CM using a commercially available enzyme immunoassay kit (Cayman Inc.) according to the manufacturer's instructions.

[8] = system: uPA; assay: uPA activity in conditioned medium, colorimetric assay; conditions: for inhibition of LPA-induced uPA activity: 24 hours
Method: uPA activity in CM of confluent monolayers (˜10^6 cells) of serum-starved SKOV3 and OVCAR3 was measured in WT cells stimulated for 24 hours with LPA (50 μM) in the presence and absence of SPARC (10 μg/ml). uPA activity in adenovirus-transduced SKOV3 and OVCAR3 stimulated or not with LPA, or cocultured with Meso301 monolayers, U937 macrophages (added in 0.22-μm transwell inserts), or in triple-culture systems was also measured. uPA activity in CM was measured using a commercially available colorimetric assay kit (Chemicon) according to the manufacturer's instructions. […] The results are mean±SEM of a representative of three independent experiments, each performed in duplicate. *P<0.05, compared to nonstimulated WT or Ad-GFP cells. **P<0.05, compared to matched WT or Ad-GFP condition. #P<0.05, compared to coculture of ovarian cancer cells with either Meso301 or U937 in two-cell culture systems.

[9] = system: 8-isoprostane; assay: 8-isoprostane level in conditioned medium, enzyme immunoassay
Method: SKOV3 and OVCAR3 were treated as described in Example 6, and the level of 8-isoprostane was determined in the CM using a commercially available enzyme immunoassay kit (Cayman Inc.) according to the manufacturer's instructions.

[10] = system: MCP-1; assay: MCP-1 protein secreted in conditioned medium, ELISA; conditions: 50 μM LPA
Method: Ovarian cancer cell lines were transduced for 24 hours with adenovirus expressing GFP (Ad-GFP) or adenovirus expressing GFP and SPARC (Ad-GFP-SPARC) in complete growth medium at a multiplicity of infection of 15 to 25 as described previously (Said et al., Am J Pathol, 170: 1054-63 (2007)).
Confluent monolayers (−106 cells, serum starved overnight) of wild type (WT) human ovarian cancer cell lines SKOV3 or OVCAR3, were stimulated with 50 μM lysophosphatidic acid (LPA) for 24 hours in the presence and absence of SPARC (10 μg/ml). Similarly, adenovirus-transduced SKOV3 and OVCAR3 were stimulated with 50 [M LPA for 24 to 48 hours. Alternatively, adenovirus-transduced SKOV3 and OVCAR3 were seeded onto confluent monolayers or cocultured with Meso301 for 24 to 48 hours. MCP-1 protein secreted in the conditioned medium (CM) of SKOV3 and OVCAR3 was determined by ELISA using a commercially available kit (RayBioTech, Inc., Norcross, Ga.). Controls included cells that were not stimulated (NS) with LPA.

[11] = system: IL-6; assay: IL-6 in conditioned medium, ELISA; conditions: U937
Method: SKOV3 and OVCAR3 cells, transduced or not with Ad-GFP or Ad-GFP-SPARC, and U937 cells were cultured individually, in cocultures, or in triple cultures with Meso301 cells for twenty four hours, and the conditioned medium was assayed for IL-6 by ELISA as described in Example 1. The results shown in FIG. 3 represent the mean±SEM of one of three independent experiments, each performed in duplicate. *P<0.05, compared to matched WT or Ad-GFP. **P<0.05, compared to double cultures in the absence of mesothelial cells.

[12] = either cell line (SKOV3, OVCAR3)

PGE2-induced NF-κB activation [3]: approximately three
Molecule: CCCCC[C@H](O)/C=C/[C@H]1[C@H](O)CC(=O)[C@@H]1C/C=C\CCCC(=O)O [PGE2, prostaglandin E2]
PGE2-stimulated proliferation [1]: concentration dependent
PGE2-stimulated proliferation [2]: concentration dependent
proinvasive effect of PGE2 [4]: concentration dependent
proinvasive effect of PGE2 [5]: concentration dependent

increase in PGE2 production by LPA stimulation ([7]; SKOV3 and OVCAR): 14 fold
increase in 8-isoprostane production by LPA stimulation ([9]; OVCAR): ~2.5 fold
increase in 8-isoprostane production by LPA stimulation ([9]; SKOV3): ~2.2 fold
Molecule: lysophosphatidic acid [LPA]
levels of active MMP-9 after LPA stimulation ([6]; OVCAR3 CM, LPA 50 μM): significantly increased
levels of pro- and active MMP-9 after LPA stimulation ([6]; SKOV3 CM, LPA 50 μM): significantly increased
MMP-2 and MMP-9 activity after LPA ([6]; U937 CM, LPA 50 μM): significantly increased
LPA-induced increase in uPA activity ([8]; WT and Ad-GFP-transduced OVCAR3, LPA 50 μM): 4.5 fold
LPA-induced increase in uPA activity ([8]; WT and Ad-GFP-transduced SKOV3, LPA 50 μM): 4 fold
increase of MCP-1 production after LPA stimulation ([10]; SKOV3 and OVCAR3, 48 hours): nine

suppression of LPA-induced PGE2 production [7, 12]: 40%
decrease of baseline production of PGE2 ([7]; serum-starved SKOV3 and OVCAR3): up to 30%
suppression of LPA-induced 8-isoprostane production [9, 12]: up to 26%
decrease of basal 8-isoprostane (ROS) production ([9]; serum starved SKOV3 and OVCAR3): 70%
B1: Secreted protein acidic and rich in cysteine (protein, listed as Homo sapiens)
chain: APQQEALPDETEVVEETVAEVTEVSVGANPVQVEVGEFDDGAEETEEEVVAENPCQNHHCKHGKVCELDENNTPMCVCQDPTSCPAPIGEFEKVCSNDNKTFDSSCHFFATKCTLEGTKKGHKLHLDYIGPCKYIPPCLDSELTEFPLRMRDWLKNVLVTLYERDEDNNLLTEKQKLRVKKIHENEKRLEAGDHPVELLARDFEKNYNMYIFPVHWQFGQLDQHPIDGYLSHTELAPLRAPLIPMEHCTTRFFETCDLDNDKYIALDEWAGCFGIKQKDIDKDLVI
notes: matrix-associated protein added to cultures at 10 or 20 μg/ml
LPA-induced activity of MMP-2 and MMP-9 ([6]; U937 CM, SPARC 20 μg/ml): markedly decreased
effect on IL-6 levels [11]: Neither exogenous SPARC nor overexpression of SPARC in U937 had any effect
attenuation of constitutive uPA activity in CM ([8]; OVCAR3): 29%
inhibition of LPA-induced uPA activity ([8]; OVCAR3, LPA 50 μM): 36%
attenuation of constitutive uPA activity in CM ([8]; SKOV3): 40%
inhibition of LPA-induced uPA activity ([8]; SKOV3, LPA 50 μM): 76%
inhibition of LPA-induced MCP-1 production ([10]; OVCAR3, 24 hours): 59%
inhibition of LPA-induced MCP-1 production ([10]; OVCAR3, 48 hours): 30%
inhibition of LPA-induced MCP-1 production ([10]; SKOV3, 24 hours): 54%
inhibition of LPA-induced MCP-1 production ([10]; SKOV3, 48 hours): 43%
